The values below come from patent publication US20030199692A1, “Propanoic acid derivatives that inhibit the binding of integrins to their receptors” (priority 1999, published 2003).

T1 sequence (P13612 34-1032): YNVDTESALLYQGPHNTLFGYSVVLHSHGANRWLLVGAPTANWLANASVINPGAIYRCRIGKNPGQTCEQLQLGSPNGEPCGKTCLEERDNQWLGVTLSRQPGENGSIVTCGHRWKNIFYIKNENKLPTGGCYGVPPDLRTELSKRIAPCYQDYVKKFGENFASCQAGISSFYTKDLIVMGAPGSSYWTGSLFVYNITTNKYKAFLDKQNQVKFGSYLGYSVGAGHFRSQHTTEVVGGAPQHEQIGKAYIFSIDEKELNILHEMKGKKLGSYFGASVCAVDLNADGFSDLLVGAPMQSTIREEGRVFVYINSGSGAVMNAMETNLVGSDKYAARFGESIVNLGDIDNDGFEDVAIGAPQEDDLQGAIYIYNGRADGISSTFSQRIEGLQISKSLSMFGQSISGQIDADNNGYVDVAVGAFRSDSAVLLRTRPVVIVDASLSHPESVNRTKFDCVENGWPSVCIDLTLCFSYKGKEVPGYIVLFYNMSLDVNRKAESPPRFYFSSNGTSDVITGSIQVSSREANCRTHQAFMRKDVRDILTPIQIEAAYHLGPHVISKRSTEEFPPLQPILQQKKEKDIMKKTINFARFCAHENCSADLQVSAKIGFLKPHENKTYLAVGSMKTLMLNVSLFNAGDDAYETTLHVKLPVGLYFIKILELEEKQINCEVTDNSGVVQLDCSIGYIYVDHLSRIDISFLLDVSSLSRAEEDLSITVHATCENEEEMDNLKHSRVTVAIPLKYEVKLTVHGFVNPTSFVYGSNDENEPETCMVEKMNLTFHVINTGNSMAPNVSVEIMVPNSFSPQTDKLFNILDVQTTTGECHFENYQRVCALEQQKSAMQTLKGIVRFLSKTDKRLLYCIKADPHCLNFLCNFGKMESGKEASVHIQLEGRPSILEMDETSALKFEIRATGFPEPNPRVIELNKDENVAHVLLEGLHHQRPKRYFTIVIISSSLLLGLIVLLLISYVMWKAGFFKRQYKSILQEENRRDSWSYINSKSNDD
T1 sequence (P05556 21-798): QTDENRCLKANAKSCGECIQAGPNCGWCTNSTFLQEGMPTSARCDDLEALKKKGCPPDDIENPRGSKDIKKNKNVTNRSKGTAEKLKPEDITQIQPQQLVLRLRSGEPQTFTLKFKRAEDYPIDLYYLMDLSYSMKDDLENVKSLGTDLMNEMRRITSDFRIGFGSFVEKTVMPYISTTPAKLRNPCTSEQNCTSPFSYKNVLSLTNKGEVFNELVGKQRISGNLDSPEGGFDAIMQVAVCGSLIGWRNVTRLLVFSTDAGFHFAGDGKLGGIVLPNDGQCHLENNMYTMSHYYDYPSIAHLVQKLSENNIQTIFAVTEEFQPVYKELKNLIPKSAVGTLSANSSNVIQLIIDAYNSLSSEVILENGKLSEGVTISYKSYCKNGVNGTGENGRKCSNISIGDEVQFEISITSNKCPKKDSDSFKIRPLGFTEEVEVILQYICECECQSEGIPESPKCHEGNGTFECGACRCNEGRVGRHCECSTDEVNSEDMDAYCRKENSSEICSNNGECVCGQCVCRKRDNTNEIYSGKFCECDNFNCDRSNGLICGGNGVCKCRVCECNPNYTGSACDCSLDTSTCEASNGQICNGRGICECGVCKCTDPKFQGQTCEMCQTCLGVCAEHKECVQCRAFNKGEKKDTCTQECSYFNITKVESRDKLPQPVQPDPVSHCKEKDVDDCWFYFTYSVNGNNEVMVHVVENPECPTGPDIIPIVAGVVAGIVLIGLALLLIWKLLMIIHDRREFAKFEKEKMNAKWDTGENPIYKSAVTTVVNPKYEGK

The first series addresses T1, α4β1 integrin (Homo sapiens, UniProt P05556+P13612).
T1 construct: endogenous in cells; host or cells: Ramos cells
The experiment in a line: Inhibition of adhesion of calcein AM-labeled Ramos cells to CS1 (fibronectin) peptide-conjugated ovalbumin. The settings on record: Table 1; Ramos cell adhesion to CS1-conjugated ovalbumin, 30 minutes at 37° C. In kind it is cell-based. The procedure, abridged:
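Calcein AM-labeled Ramos cells (2.5×10^5/well) added with or without compound to plates coated with CS1 peptide-ovalbumin conjugate in TBS containing 1 mM each MgCl2, CaCl2, MnCl2; 30 min at 37° C. Adherent cells lysed and quantified fluorometrically after washes; IC50 as dose for 50% inhibition, or percent inhibition at 100 μM.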
With `CCCC[C@@H](C(=O)N[C@@H](CC(=O)O)c1ccc2c(c1)OCO2)n1cc(C)cc(Cc2ccccc2)c1=O` [Compound 10], the IC50 was 3 nM.

The series is the same for the next values; noted with them: Table 3; Ramos cell adhesion to CS1-conjugated ovalbumin, 30 minutes at 37° C.
Regarding `CCCCC(C(=O)N[C@@H](CC(=O)O)c1ccc2c(c1)OCO2)N1C(=O)N(Cc2ccccc2)C(=O)C1(C)C` (stereo partly drawn) [(3S)-3-(1,3-benzodioxol-5-yl)-3-({2-[5,5-dimethyl-2,4-dioxo-3-(phenylmethyl)tetrahydro-1H-imidazol-1-yl]hexanoyl}amino)propanoic acid], the IC50 was 20000 nM.

Still in this series, the particulars now being: Table 4; Ramos cell adhesion to CS1-conjugated ovalbumin, 30 minutes at 37° C.
For the compound `CCCCC(C(=O)N[C@@H](CC(=O)O)c1ccc(-c2ccc(C)cc2)cc1)n1cc(C)cc(Cc2ccccc2)c1=O` (stereo partly drawn) [(3S)-3-{[2-(3-benzyl-5-methyl-2-oxopyridin-1(2H)-yl)hexanoyl]amino}-3-(4′-methyl-1,1′-biphenyl-4-yl)propanoic acid], the IC50 was 250 nM.

As for `CCCCC(C(=O)N[C@@H](CC(=O)O)c1ccc2cc(OC)ccc2c1)n1cc(C)cc(Cc2ccccc2)c1=O` (stereo partly drawn) [(3S)-3-{[2-(3-benzyl-5-methyl-2-oxopyridin-1(2H)-yl)hexanoyl]amino}-3-(6-methoxy-2-naphthyl)propanoic acid], the half-inhibitory concentration (IC50) is 40 nM.

Turning to `CCCCC(C(=O)N[C@@H](CC(=O)O)c1cccc(OC(F)(F)F)c1)n1cc(C)cc(Cc2ccccc2)c1=O` (stereo partly drawn) [(3S)-3-{[2-(3-benzyl-5-methyl-2-oxopyridin-1(2H)-yl)hexanoyl]amino}-3-[3-(trifluoromethoxy)phenyl]propanoic acid], the IC50 was 40 nM.

Turning to `CCCCC(C(=O)N[C@@H](CC(=O)O)c1cccc(C(F)(F)F)c1)n1cc(C)cc(Cc2ccccc2)c1=O` (stereo partly drawn) [(3S)-3-{[2-(3-benzyl-5-methyl-2-oxopyridin-1(2H)-yl)hexanoyl]amino}-3-[3-(trifluoromethyl)phenyl]propanoic acid], the IC50 is 250 nM.

Regarding `CCCCC(C(=O)N[C@@H](CC(=O)O)c1ccc(OC(F)(F)F)cc1)n1cc(C)cc(Cc2ccccc2)c1=O` (stereo partly drawn) [(3S)-3-{[2-(3-benzyl-5-methyl-2-oxopyridin-1(2H)-yl)hexanoyl]amino}-3-[4-(trifluoromethoxy)phenyl]propanoic acid], the IC50 was 27 nM.

Regarding `CCCCC(C(=O)N[C@@H](CC(=O)O)c1ccccc1)n1cc(C)cc(Cc2ccccc2)c1=O` (stereo partly drawn) [(3S)-3-{[2-(3-benzyl-5-methyl-2-oxopyridin-1(2H)-yl)hexanoyl]amino}-3-phenylpropanoic acid], the concentration for half-maximal inhibition (IC50) was 10 nM.

As for `CCCC[C@@H](C(=O)N[C@@H](CC(=O)O)c1ccc(-c2c(OC)cccc2OC)cc1)n1cc(C)cc(Cc2ccccc2)c1=O` [(3S)-3-{[(2S)-2-(3-benzyl-5-methyl-2-oxopyridin-1(2H)-yl)hexanoyl]amino}-3-(2′,6′-dimethoxy-1,1′-biphenyl-4-yl)propanoic acid], the IC50 is 200 nM.

Take `CCCC[C@@H](C(=O)N[C@@H](CC(=O)O)c1cc(OC)cc(OC)c1)n1cc(C)cc(Cc2ccccc2)c1=O` [(3S)-3-{[(2S)-2-(3-benzyl-5-methyl-2-oxopyridin-1(2H)-yl)hexanoyl]amino}-3-(3,5-dimethoxyphenyl)propanoic acid]: the IC50 was 10 nM.

Consider `CCCC[C@@H](C(=O)N[C@@H](CC(=O)O)c1ccc(OC)c(F)c1)n1cc(C)cc(Cc2ccccc2)c1=O` [(3S)-3-{[(2S)-2-(3-benzyl-5-methyl-2-oxopyridin-1(2H)-yl)hexanoyl]amino}-3-(3-fluoro-4-methoxyphenyl)propanoic acid], for which the IC50 is 17 nM.

Regarding `CCCCC(C(=O)N[C@@H](CC(=O)O)c1cc(OC)c(OC)c(OC)c1)n1cc(C)cc(Cc2ccccc2)c1=O` (stereo partly drawn) [(3S)-3-{]2-(3-benzyl-5-methyl-2-oxopyridin-1(2H)-yl)hexanoyl]amino}-3-(3,4,5-trimethoxyphenyl)propanoic acid], the half-maximal inhibitory concentration (IC50) is 33 nM.

Tested on in a further series: not given
Test: not given
Details: not given
`CCCCC(C(=O)N[C@@H](CC(=O)O)c1ccc2c(c1)OCO2)N1C(=O)N(Cc2ccccc2)C(=O)C1(C)C` (stereo partly drawn) [(3S)-3-(1,3-benzodioxol-5-yl)-3-({2-[5,5-dimethyl-2,4-dioxo-3-(phenylmethyl)tetrahydro-1H-imidazol-1-yl]hexanoyl}amino)propanoic acid] returned a melting point of 53 to 55 °C.

What is called IC50 is the concentration needed to halve the response being measured. One may read the melting point as the temperature of the solid-liquid transition.
